Laboratory results as given in ChEMBL document CHEMBL5442219.

How the values were obtained:
Details in all cases: Compound concentration 10 µM
[1] = biological target: T1, Alpha-1B adrenergic receptor (Homo sapiens) (UniProt P35368)
T1 sequence (whole entry): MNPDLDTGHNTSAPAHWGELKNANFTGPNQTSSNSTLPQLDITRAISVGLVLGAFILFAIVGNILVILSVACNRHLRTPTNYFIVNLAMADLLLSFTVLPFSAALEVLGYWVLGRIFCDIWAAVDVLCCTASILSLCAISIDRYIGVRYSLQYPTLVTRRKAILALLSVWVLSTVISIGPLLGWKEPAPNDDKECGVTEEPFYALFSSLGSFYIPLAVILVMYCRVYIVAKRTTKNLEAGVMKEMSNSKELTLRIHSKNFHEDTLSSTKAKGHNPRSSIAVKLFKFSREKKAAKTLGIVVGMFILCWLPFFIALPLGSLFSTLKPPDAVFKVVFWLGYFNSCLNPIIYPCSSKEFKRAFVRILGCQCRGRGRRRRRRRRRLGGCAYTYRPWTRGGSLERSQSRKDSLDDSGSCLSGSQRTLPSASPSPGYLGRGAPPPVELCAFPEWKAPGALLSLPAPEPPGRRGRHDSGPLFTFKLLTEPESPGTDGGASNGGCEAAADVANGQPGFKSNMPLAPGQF
Description: PDSP Primary Binding target: ADRA1B - Compounds are tested at 10 uM concentration, plate are incubated at room temperature in the dark for 90 minutes. Reaction are stopped by vacuum filtration onto 0.3% polyethyleneimine soaked filter mats using Filtermate harvester. Scintilation cocktail is then melted onto microwave-dried filters on a hot plate and the radio activity is counted in Microbia counter.

[2] = biological target: T2, Alpha-1D adrenergic receptor (Homo sapiens) (UniProt P25100)
T2 sequence (whole entry): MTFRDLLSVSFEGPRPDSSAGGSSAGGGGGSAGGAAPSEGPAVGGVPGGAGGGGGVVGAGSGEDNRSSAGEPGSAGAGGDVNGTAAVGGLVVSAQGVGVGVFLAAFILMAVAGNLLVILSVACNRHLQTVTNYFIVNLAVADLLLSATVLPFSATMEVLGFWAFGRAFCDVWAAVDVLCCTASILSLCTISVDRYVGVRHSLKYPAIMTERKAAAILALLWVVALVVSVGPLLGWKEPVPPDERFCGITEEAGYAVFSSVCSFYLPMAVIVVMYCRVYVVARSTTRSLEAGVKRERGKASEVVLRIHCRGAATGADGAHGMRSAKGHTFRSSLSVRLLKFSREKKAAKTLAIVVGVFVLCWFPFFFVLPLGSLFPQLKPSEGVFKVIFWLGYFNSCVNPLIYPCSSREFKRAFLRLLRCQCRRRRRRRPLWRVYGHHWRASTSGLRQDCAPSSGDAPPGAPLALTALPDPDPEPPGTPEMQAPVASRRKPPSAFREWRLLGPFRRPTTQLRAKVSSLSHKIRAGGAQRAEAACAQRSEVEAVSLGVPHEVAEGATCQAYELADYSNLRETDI
Description: PDSP Primary Binding target: ADRA1D - Compounds are tested at 10 uM concentration, plate are incubated at room temperature in the dark for 90 minutes. Reaction are stopped by vacuum filtration onto 0.3% polyethyleneimine soaked filter mats using Filtermate harvester. Scintilation cocktail is then melted onto microwave-dried filters on a hot plate and the radio activity is counted in Microbia counter.

[3] = biological target: T3, Alpha-2A adrenergic receptor (Homo sapiens) (UniProt P08913)
T3 sequence (whole entry): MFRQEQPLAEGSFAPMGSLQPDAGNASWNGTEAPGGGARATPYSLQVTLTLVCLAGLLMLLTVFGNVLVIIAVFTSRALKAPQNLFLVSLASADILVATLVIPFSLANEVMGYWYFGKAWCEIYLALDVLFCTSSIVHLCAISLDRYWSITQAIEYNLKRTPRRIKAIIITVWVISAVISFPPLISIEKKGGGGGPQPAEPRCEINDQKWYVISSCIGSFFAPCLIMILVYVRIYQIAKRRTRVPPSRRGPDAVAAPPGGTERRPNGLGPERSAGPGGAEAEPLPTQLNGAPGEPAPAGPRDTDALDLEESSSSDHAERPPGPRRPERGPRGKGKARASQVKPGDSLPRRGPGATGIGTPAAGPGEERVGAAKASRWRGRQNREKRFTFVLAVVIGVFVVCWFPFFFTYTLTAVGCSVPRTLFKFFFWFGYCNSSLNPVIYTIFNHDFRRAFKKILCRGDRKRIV
Description: PDSP Primary Binding target: ADRA2A - Compounds are tested at 10 uM concentration, plate are incubated at room temperature in the dark for 90 minutes. Reaction are stopped by vacuum filtration onto 0.3% polyethyleneimine soaked filter mats using Filtermate harvester. Scintilation cocktail is then melted onto microwave-dried filters on a hot plate and the radio activity is counted in Microbia counter.

[4] = biological target: T4, Muscarinic acetylcholine receptor M2 (Homo sapiens) (UniProt P08172)
T4 sequence (whole entry): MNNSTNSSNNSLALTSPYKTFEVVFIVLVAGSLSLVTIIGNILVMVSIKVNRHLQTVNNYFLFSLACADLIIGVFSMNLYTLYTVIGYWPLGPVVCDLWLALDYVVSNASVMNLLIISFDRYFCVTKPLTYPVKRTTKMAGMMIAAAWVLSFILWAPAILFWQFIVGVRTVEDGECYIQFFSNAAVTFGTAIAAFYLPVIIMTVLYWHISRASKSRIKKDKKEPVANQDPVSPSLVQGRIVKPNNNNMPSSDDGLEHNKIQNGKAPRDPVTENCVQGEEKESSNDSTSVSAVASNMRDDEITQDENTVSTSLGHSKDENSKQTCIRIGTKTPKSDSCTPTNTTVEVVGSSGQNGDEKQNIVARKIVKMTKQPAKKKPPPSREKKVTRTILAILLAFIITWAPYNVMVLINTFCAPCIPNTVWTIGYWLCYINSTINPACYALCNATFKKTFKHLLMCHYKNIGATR
Description: PDSP Primary Binding target: CHRM2 - Compounds are tested at 10 uM concentration, plate are incubated at room temperature in the dark for 90 minutes. Reaction are stopped by vacuum filtration onto 0.3% polyethyleneimine soaked filter mats using Filtermate harvester. Scintilation cocktail is then melted onto microwave-dried filters on a hot plate and the radio activity is counted in Microbia counter.

[5] = biological target: T5, Muscarinic acetylcholine receptor M4 (Homo sapiens) (UniProt P08173)
T5 sequence (whole entry): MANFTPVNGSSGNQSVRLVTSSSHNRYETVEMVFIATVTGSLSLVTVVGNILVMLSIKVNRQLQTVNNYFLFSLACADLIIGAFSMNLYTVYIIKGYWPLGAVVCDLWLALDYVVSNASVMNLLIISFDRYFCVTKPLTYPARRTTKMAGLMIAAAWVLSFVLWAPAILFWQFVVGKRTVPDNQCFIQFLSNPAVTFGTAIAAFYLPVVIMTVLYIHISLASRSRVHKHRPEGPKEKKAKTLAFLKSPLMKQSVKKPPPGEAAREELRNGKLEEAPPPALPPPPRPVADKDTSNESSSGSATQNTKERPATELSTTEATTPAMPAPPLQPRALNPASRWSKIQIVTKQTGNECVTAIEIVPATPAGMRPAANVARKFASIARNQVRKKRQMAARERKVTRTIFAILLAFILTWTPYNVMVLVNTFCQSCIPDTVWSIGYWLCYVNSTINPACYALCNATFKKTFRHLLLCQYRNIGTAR
Description: PDSP Primary Binding target: CHRM4 - Compounds are tested at 10 uM concentration, plate are incubated at room temperature in the dark for 90 minutes. Reaction are stopped by vacuum filtration onto 0.3% polyethyleneimine soaked filter mats using Filtermate harvester. Scintilation cocktail is then melted onto microwave-dried filters on a hot plate and the radio activity is counted in Microbia counter.

[6] = biological target: D(1B) dopamine receptor (Homo sapiens) (UniProt P21918)
Description: PDSP Primary Binding target: DRD5 - Compounds are tested at 10 uM concentration, plate are incubated at room temperature in the dark for 90 minutes. Reaction are stopped by vacuum filtration onto 0.3% polyethyleneimine soaked filter mats using Filtermate harvester. Scintilation cocktail is then melted onto microwave-dried filters on a hot plate and the radio activity is counted in Microbia counter.

[7] = biological target: 5-hydroxytryptamine receptor 6 (Homo sapiens) (UniProt P50406)
Description: PDSP Primary Binding target: HTR6 - Compounds are tested at 10 uM concentration, plate are incubated at room temperature in the dark for 90 minutes. Reaction are stopped by vacuum filtration onto 0.3% polyethyleneimine soaked filter mats using Filtermate harvester. Scintilation cocktail is then melted onto microwave-dried filters on a hot plate and the radio activity is counted in Microbia counter.

[8] = biological target: Kappa-type opioid receptor (Homo sapiens) (UniProt P41145)
Description: PDSP Primary Binding target: OPRK1 - Compounds are tested at 10 uM concentration, plate are incubated at room temperature in the dark for 90 minutes. Reaction are stopped by vacuum filtration onto 0.3% polyethyleneimine soaked filter mats using Filtermate harvester. Scintilation cocktail is then melted onto microwave-dried filters on a hot plate and the radio activity is counted in Microbia counter.

[9] = biological target: Histamine H1 receptor (Homo sapiens) (UniProt P35367)
Histamine H1 receptor (Homo sapiens), sequence (P35367 whole entry): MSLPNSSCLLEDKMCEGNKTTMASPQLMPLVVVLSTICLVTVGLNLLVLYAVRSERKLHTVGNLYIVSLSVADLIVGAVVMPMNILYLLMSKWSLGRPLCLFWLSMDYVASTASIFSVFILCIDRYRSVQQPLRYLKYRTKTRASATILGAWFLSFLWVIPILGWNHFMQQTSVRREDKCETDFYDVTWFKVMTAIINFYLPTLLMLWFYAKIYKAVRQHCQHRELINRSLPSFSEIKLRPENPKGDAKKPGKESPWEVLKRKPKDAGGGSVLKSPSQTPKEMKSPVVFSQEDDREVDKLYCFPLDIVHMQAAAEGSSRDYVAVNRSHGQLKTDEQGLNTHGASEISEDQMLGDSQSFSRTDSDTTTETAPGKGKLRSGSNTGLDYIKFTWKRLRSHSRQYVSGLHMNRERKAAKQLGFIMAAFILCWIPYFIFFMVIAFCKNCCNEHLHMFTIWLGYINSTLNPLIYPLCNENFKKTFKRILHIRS
Description: PDSP Primary Binding target: HRH1 - Compounds are tested at 10 uM concentration, plate are incubated at room temperature in the dark for 90 minutes. Reaction are stopped by vacuum filtration onto 0.3% polyethyleneimine soaked filter mats using Filtermate harvester. Scintilation cocktail is then melted onto microwave-dried filters on a hot plate and the radio activity is counted in Microbia counter.

5-hydroxytryptamine receptor 6 (Homo sapiens), sequence (P50406 whole entry): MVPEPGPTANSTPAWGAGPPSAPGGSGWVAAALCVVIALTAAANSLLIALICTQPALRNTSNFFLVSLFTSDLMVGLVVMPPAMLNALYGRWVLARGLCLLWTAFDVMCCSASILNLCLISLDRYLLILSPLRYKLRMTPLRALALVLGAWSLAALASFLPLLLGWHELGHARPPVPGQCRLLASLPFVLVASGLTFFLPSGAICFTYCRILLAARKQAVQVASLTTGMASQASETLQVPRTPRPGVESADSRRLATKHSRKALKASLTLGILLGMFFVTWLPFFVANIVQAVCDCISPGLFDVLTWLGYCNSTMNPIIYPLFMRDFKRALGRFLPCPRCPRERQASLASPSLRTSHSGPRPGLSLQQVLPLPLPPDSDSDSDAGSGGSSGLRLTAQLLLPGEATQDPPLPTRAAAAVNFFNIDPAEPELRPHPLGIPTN
Kappa-type opioid receptor (Homo sapiens), sequence (P41145 whole entry): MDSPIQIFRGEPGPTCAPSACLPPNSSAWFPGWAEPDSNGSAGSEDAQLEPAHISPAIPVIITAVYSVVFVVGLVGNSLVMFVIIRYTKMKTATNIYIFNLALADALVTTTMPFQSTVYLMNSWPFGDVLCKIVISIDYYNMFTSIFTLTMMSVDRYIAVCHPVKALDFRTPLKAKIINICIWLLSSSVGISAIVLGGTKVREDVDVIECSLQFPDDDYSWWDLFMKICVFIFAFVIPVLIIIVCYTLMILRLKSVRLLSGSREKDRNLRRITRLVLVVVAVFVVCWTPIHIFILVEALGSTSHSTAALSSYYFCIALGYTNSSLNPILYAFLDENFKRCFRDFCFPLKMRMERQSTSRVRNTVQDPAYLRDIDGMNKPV
D(1B) dopamine receptor (Homo sapiens), sequence (P21918 whole entry): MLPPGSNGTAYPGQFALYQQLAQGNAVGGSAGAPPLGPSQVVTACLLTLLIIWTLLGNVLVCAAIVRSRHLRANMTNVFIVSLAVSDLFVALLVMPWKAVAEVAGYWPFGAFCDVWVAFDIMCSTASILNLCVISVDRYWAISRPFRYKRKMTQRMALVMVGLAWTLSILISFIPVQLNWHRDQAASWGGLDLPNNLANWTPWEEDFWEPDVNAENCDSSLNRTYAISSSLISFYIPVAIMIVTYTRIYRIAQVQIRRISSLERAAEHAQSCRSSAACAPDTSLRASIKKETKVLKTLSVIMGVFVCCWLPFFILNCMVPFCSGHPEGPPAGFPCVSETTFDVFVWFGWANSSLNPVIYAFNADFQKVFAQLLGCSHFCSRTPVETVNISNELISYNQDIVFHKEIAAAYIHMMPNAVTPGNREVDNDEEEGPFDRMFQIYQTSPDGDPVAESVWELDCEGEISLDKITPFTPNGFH

| Compound | inhibition [1] | inhibition [2] | inhibition [3] | inhibition [4] | inhibition [5] | inhibition [6] | inhibition [7] | inhibition [8] | inhibition [9] |
| --- | --- | --- | --- | --- | --- | --- | --- | --- | --- |
| COc1cc2nc(N3CCN(C(=O)c4ccco4)CC3)nc(N)c2cc1OC | 0% | 0% | 42.3% | 15.9% | 2.17% | 7.69% | 19.4% | 11% | – |
| CCCCCCCCCCCCC/C=C/[C@@H](O)[C@@H](N)COP(=O)(O)O | -1.45% | 9.46% | 4.33% | -7.68% | -2.5% | 22.7% | 3.57% | 6.18% | 14.3% |
| CC(C)NCC(O)COc1cccc2[nH]ccc12 (centres undefined) | 6.47% | 13.6% | 29% | -9.11% | 4.2% | 26.3% | 4.75% | 46.9% | – |
| CN1C[C@H](C(=O)N[C@]2(C)O[C@@]3(O)[C@@H]4CCCN4C(=O)[C@H](Cc4ccccc4)N3C2=O)C[C@@H]2c3cccc4[nH]cc(c34)C[C@H]21 | 93.8% | 102% | 99.6% | 4.48% | -5.91% | 78.7% | 97.4% | 15.5% | – |
| c1nc(CC2CCNCC2)c[nH]1 | 15.3% | 7.26% | 14.5% | 10.6% | -0.76% | 5.35% | 18.8% | – | 26.1% |
| COc1ccc(NC(=O)c2ccc(-c3ccc(-c4noc(C)n4)cc3C)cc2)cc1OCCN(C)C | 26.8% | 38% | 99.4% | 80.8% | 7.57% | 48.4% | – | 44% | 22.1% |
| O=c1ccc2ccc(OCCCCN3CCN(c4cccc5sccc45)CC3)cc2[nH]1 | 97.3% | 92.5% | 104% | -3.44% | 30.5% | 88.1% | 101% | 13.9% | 100% |
| NCCc1cn(S(=O)(=O)c2c(Cl)nc3sccn23)c2ccccc12 | 51.4% | 38.2% | 93.4% | 15.1% | 16.1% | 38.9% | 99.3% | 32.8% | 52.1% |
| Cc1cc(NC(=O)NCCN2CCC(O)(Cc3ccccc3)CC2)c2ccccc2n1 | 26.1% | 16.2% | 82.4% | 16.1% | 17.1% | 41.9% | 8.02% | 31.9% | 5.97% |
| COc1ccc2cc(S(=O)(=O)N[C@H](CC(=O)N[C@H](Cc3ccc(CN4[C@H](C)CCC[C@@H]4C)cc3)C(=O)N(C)C(C)C)c3ccc4c(c3)OCO4)ccc2c1 | 2.74% | 15.9% | 39.4% | 69.6% | 46.7% | – | 4.73% | 96.7% | 33.1% |
| OC[C@H]1O[C@@H](n2cnc3c(NC4CCCC4)ncnc32)[C@H](O)[C@@H]1O | 9.65% | -2.06% | -6.3% | 7.74% | 3.39% | 80.8% | – | -5.12% | 2.72% |
| CN[C@@H]1CCc2[nH]c3ccc(C(N)=O)cc3c2C1 | 93.5% | 19.6% | 31% | 10.5% | -3.71% | 20.9% | 24.2% | 5.76% | 0.33% |
| CN(C)C(=O)N[C@H]1CC[C@H](CCN2CCN(c3cccc(Cl)c3Cl)CC2)CC1 | 83.4% | 89.4% | 95% | 29.1% | 64% | -0.02% | 69.7% | 5.62% | 98.7% |
| CN1CCN(c2ccc(Nc3c4ccccc4nc4ccccc34)cc2)CC1 | 53.5% | 59.2% | 70.5% | 63.8% | 24.6% | 14.1% | 13.8% | 38.7% | 54.4% |
| C[N+]1(C)[C@@H]2C[C@@H](OC(=O)C(O)(c3cccs3)c3cccs3)C[C@H]1[C@@H]1O[C@@H]12 | -7.35% | 13.1% | 6.5% | 94.2% | 98.8% | – | -5.82% | -0.32% | 92.1% |
| CC1(C)SSC(C)(C)[C@@H](NC(=O)[C@@H](N)Cc2ccc(O)cc2)C(=O)NCC(=O)N[C@@H](Cc2ccccc2)C(=O)N[C@H]1C(=O)O | 8.91% | – | 13.7% | -9.99% | -2.51% | 3.84% | – | -4.89% | 3.33% |
| CN1CCC(=C2c3ccccc3CC(=O)c3sccc32)CC1 | 1.66% | 16.3% | 80.9% | 75.2% | 64.6% | 55.2% | 78.4% | 20.8% | – |
| O=C(O)c1cc(-c2ccc(C3CCNCC3)cc2)c2ccc(-c3ccc(C(F)(F)F)cc3)cc2c1 | 38.4% | 16.7% | 42.2% | 10.7% | -1.1% | 81% | 11.3% | 19.2% | 42.8% |
| NCCc1c[nH]c2ccc(C(N)=O)cc12 | 3.04% | 14.8% | 69.8% | 7.09% | -6.09% | – | 88.4% | 2.24% | -4.09% |
